{
  "source": "patent US12521342B2",
  "about": "“Fast disintegrating tablet” (CUBOPHARM PTY LTD, priority 2017, dated 2026)",
  "key": {"[1]": {"conditions": "cited from earlier work"}, "[2]": {"conditions": "pig, pH 7.4"}},
  "note": "Read-outs that look alike come from different tables or passages of the source.",
  "data": [
    {"smiles": "CNCC(O)c1ccc(O)c(O)c1", "note": "(stereo not drawn) [Adrenaline]", "values": [
      {"measurement": "logP", "setting": "[1]", "value": "−0.5 to −1.2"}
    ]},
    {"smiles": "CC(C)c1nc(N(C)S(C)(=O)=O)nc(-c2ccc(F)cc2)c1/C=C/[C@@H](O)C[C@@H](O)CC(=O)O", "note": "[Rosuvastatin]", "values": [
      {"measurement": "Total rosuvastatin absorbed per minute", "setting": "[2]; 0.4 mg/1.5 ml", "value": 0.6, "unit": "ng/mL"},
      {"measurement": "Total rosuvastatin absorbed per minute", "setting": "[2]; 0.8 mg/1.5 ml", "value": 0.3, "unit": "ng/mL"}
    ]}
  ]
}
